Consider 66 molecules from patent publication US11759461B2, “Small molecule inhibitors of cancer stem cells and mesenchymal cancer types” (The Scripps Research Institute, priority 2017, dated 2023).

The subject of the test is FOXC2-expressing HMLER cells. Description: Cell Titer Glo viability of FOXC2-HMLER cells (high throughput screen and 10-point response). The format is cell-based. Conditions: Homo sapiens; scored relative to parent compound 2; 72 hours; read-out: Activity Score, inhibition of FOXC2-expressing HMLER cells by Formula II compounds. The method, then:
For high throughput screening, FOXC2-HMLER and HMLER cells were plated at 10^3 cells per well in white 384-well plates in 50 μL of MEGM medium (Lonza). Cells were allowed to attach for one hour before compound was transferred to each well as a DMSO solution using a 100 nL pintool head affixed to a PerkinElmer FX instrument. After 72-hour incubation, 30 μL of a Cell Titer Glo solution (diluted 1:6 in water, Promega) was dispensed into each well and luminance values were recorded using an Envision plate reader. […] All other miniaturized, selective viability experiments were performed as above using the indicated growth medium.
More specifically, in the high throughput screening assay above, each cell line was plated at 1,000 cells per well in 384-well plates, treated for 72 hours with 2 μM of test compound, and the viability of each line was determined in parallel by Cell Titer Glo (Promega) luminance measurements.

Turning to `COc1ccc(NCc2cc3ccc(OC)cc3n(CC(=O)Nc3ccccc3F)c2=O)cc1` [Compound 2AT], the IC50 was > 20 µM.

Turning to `COc1ccc2cc(CNc3ccccc3)c(=O)n(CC(=O)NCc3ccccc3)c2c1` [Compound 2AU], the IC50 was > 20 µM.

Consider `COc1ccc(NCc2cc3ccc(OC)cc3n(CC(=O)Nc3ccc(C(C)C)cc3)c2=O)cc1` [Compound 2AV], for which the IC50 was > 20 µM.

For `COc1ccc2cc(CNc3ccc(OC)c(OC)c3)c(=O)n(CC(=O)Nc3ccccc3C)c2c1` [Compound 2AW], the IC50 was > 20 µM.

For the molecule `COc1ccc2cc(CNc3ccccc3)c(=O)n(CC(=O)NCCc3ccccc3)c2c1` [Compound 2AX], the IC50 was > 20 µM.

As to `COc1ccc2cc(CNc3ccc(C)cc3)c(=O)n(CC(=O)Nc3ccc(C)cc3)c2c1` [Compound 2AY], the IC50 is > 20 µM.

Take `COc1ccc(NCc2cc3ccc(OC)cc3n(CC(=O)Nc3ccccc3)c2=O)cc1` [Compound 2AZ]: the IC50 is > 20 µM.

As to `CCc1ccc(NCc2cc3cc4c(cc3n(CC(=O)Nc3c(C)cccc3C)c2=O)OCCO4)cc1` [Compound 2A], the IC50 is < 1 µM.

Consider `COc1ccc2cc(CNc3ccccc3)c(=O)n(CC(=O)Nc3ccc(C)cc3Cl)c2c1` [Compound 2BA], for which the IC50 is > 20 µM.

In the case of `COc1cccc(CNC(=O)Cn2c(=O)c(CNc3ccccc3)cc3ccc(OC)cc32)c1` [Compound 2BB], the IC50 was > 20 µM.

On to `COc1ccc2cc(CNc3ccccc3)c(=O)n(CC(=O)Nc3c(C)cc(C)cc3C)c2c1` [Compound 2BC], for which the IC50 is > 20 µM.

With `COc1ccc(NCc2cc3cc(OC)c(OC)cc3n(CC(=O)Nc3ccc(C)cc3)c2=O)cc1` [Compound 2BD], the IC50 was > 20 µM.

Consider `COc1ccc2c(c1)cc(CNc1ccc(OC)c(OC)c1)c(=O)n2CC(=O)Nc1ccccc1C` [Compound 2BE], for which the IC50 is > 20 µM.

Regarding `CC(=O)c1cccc(NC(=O)Cn2c(=O)c(CNc3ccc(C)cc3)cc3cc4c(cc32)OCCO4)c1` [Compound 2BF], the IC50 is > 20 µM.

With `CCOC(=O)c1cccc(NC(=O)Cn2c(=O)c(CNc3ccccc3)cc3ccc(OC)cc32)c1` [Compound 2BG], the IC50 was > 20 µM.

Take `COc1ccc2cc(CNc3ccccc3)c(=O)n(CC(=O)Nc3ccc(F)cc3)c2c1` [Compound 2BH]: the IC50 is > 20 µM.

With `COc1ccc(CNC(=O)Cn2c(=O)c(CNc3ccccc3)cc3ccc(OC)cc32)cc1` [Compound 2BI], the IC50 is > 20 µM.

Regarding `COc1ccc2cc(CNc3ccc(C)cc3)c(=O)n(CC(=O)Nc3cc(C)cc(C)c3)c2c1` [Compound 2BJ], the IC50 is > 20 µM.

Turning to `COc1ccc(NCc2cc3ccc(OC)cc3n(CC(=O)Nc3ccc(F)cc3)c2=O)cc1` [Compound 2BK], the IC50 is > 20 µM.

On to `CCc1ccccc1NC(=O)Cn1c(=O)c(CNc2ccccc2)cc2ccc(OC)cc21` [Compound 2BL], for which the IC50 is > 20 µM.

As to `COc1ccc(NCc2cc3ccc(C)cc3n(CC(=O)Nc3cccc(C)c3)c2=O)cc1OC` [Compound 2BM], the IC50 is > 20 µM.

Regarding `CCc1ccc(NC(=O)Cn2c(=O)c(CNc3ccccc3)cc3ccc(OC)cc32)cc1` [Compound 2BN], the IC50 is > 20 µM.

For the molecule `COc1ccc(NCc2cc3cc4c(cc3n(CC(=O)Nc3ccccc3C)c2=O)OCCO4)cc1` [Compound 2BO], the IC50 is > 20 µM.

As to `COc1ccc(NCc2cc3cc4c(cc3n(CC(=O)Nc3ccc(C)cc3)c2=O)OCCO4)cc1` [Compound 2BP], the IC50 is > 20 µM.

For the molecule `COc1ccc(NC(=O)Cn2c(=O)c(CNc3ccc(C)cc3)cc3cc(OC)c(OC)cc32)cc1` [Compound 2BQ], the IC50 was > 20 µM.

In the case of `COc1ccc2cc(CNc3ccccc3)c(=O)n(CC(=O)Nc3cccc(F)c3)c2c1` [Compound 2BR], the IC50 was > 20 µM.

Turning to `COc1ccc2cc(CNc3ccccc3)c(=O)n(CC(=O)Nc3cc(Cl)ccc3OC)c2c1` [Compound 2BS], the IC50 is > 20 µM.

Turning to `CCc1ccc(NCc2cc3ccc(OC)cc3n(CC(=O)Nc3cccc(Cl)c3)c2=O)cc1` [Compound 2BT], the IC50 is > 20 µM.

As to `COc1cccc(NC(=O)Cn2c(=O)c(CNc3ccc(C)cc3)cc3cc(OC)c(OC)cc32)c1` [Compound 2BU], the IC50 is > 20 µM.

As to `COc1ccc(NCc2cc3ccc(OC)cc3n(CC(=O)Nc3ccccc3C)c2=O)cc1` [Compound 2BV], the IC50 is > 20 µM.

With `COc1ccc2cc(CNc3ccccc3)c(=O)n(CC(=O)Nc3ccc(Br)cc3)c2c1` [Compound 2BW], the IC50 was > 20 µM.

Turning to `COc1ccc2cc(CNc3ccccc3)c(=O)n(CC(=O)Nc3cccc(Cl)c3)c2c1` [Compound 2BX], the IC50 is > 20 µM.

In the case of `COc1cccc(NC(=O)Cn2c(=O)c(CNc3ccccc3)cc3cc4c(cc32)OCCO4)c1` [Compound 2BY], the IC50 is > 20 µM.

Take `COc1ccc2cc(CNc3ccc(C)cc3)c(=O)n(CC(=O)Nc3cccc(C(F)(F)F)c3)c2c1` [Compound 2BZ]: the IC50 is > 20 µM.

With `CCOc1ccccc1NC(=O)Cn1c(=O)c(CNc2ccc(CC)cc2)cc2ccc(OC)cc21` [Compound 2B], the IC50 was < 1 µM.

On to `COc1ccc2cc(CNc3ccccc3)c(=O)n(CC(=O)Nc3ccc(Cl)cc3)c2c1` [Compound 2CA], for which the IC50 was > 20 µM.

Turning to `COc1cc2cc(CNc3ccccc3)c(=O)n(CC(=O)Nc3ccc(C)cc3C)c2cc1OC` [Compound 2CB], the IC50 was > 20 µM.

Consider `COc1ccc2cc(CNc3ccccc3)c(=O)n(CC(=O)Nc3cc(Cl)ccc3C)c2c1` [Compound 2CC], for which the IC50 is > 20 µM.

Turning to `Cc1ccc(NCc2cc3cc4c(cc3n(CC(=O)Nc3cc(C)ccc3C)c2=O)OCCO4)cc1` [Compound 2CD], the IC50 was > 20 µM.

Consider `COc1ccc2cc(CNc3ccc(C)cc3)c(=O)n(CC(=O)Nc3ccc4c(c3)OCCO4)c2c1` [Compound 2CE], for which the IC50 was > 20 µM.

As to `CCc1ccc(NCc2cc3cc(OC)c(OC)cc3n(CC(=O)Nc3ccccc3)c2=O)cc1` [Compound 2CF], the IC50 is > 20 µM.

With `COc1cc2cc(CNc3ccccc3)c(=O)n(CC(=O)Nc3ccc(F)cc3)c2cc1OC` [Compound 2CG], the IC50 was > 20 µM.

As for `CCc1cccc(NC(=O)Cn2c(=O)c(CNc3ccccc3)cc3ccc(OC)cc32)c1` [Compound 2CH], the IC50 is > 20 µM.

`CCc1ccc(NCc2cc3cc4c(cc3n(CC(=O)Nc3ccc(CC)cc3)c2=O)OCCO4)cc1` [Compound 2CI]: the IC50 is > 20 µM.

For `COc1cc2cc(CNc3ccc(C)cc3)c(=O)n(CC(=O)Nc3ccc(C(C)C)cc3)c2cc1OC` [Compound 2CJ], the IC50 is > 20 µM.

For the molecule `COc1ccc2cc(CNc3ccccc3)c(=O)n(CC(=O)Nc3ccc(C)c(C)c3)c2c1` [Compound 2CK], the IC50 is > 20 µM.

Regarding `CCc1ccc(NC(=O)Cn2c(=O)c(CNc3ccccc3)cc3cc(OC)c(OC)cc32)cc1` [Compound 2CL], the IC50 was > 20 µM.

As to `COc1ccc(OC)c(NC(=O)Cn2c(=O)c(CNc3ccccc3)cc3ccc(C)cc32)c1` [Compound 2CM], the IC50 is > 20 µM.

For `COc1cccc(NC(=O)Cn2c(=O)c(CNc3ccccc3)cc3cc(OC)c(OC)cc32)c1` [Compound 2CN], the IC50 is > 20 µM.

Take `COc1ccc2cc(CNc3ccccc3)c(=O)n(CC(=O)Nc3ccc(C)c(Cl)c3)c2c1` [Compound 2CO]: the IC50 was > 20 µM.

Turning to `CCc1ccc(NCc2cc3ccc(OC)cc3n(CC(=O)Nc3ccccc3C)c2=O)cc1` [Compound 2CP], the IC50 was > 20 µM.

On to `CCOc1ccc(NC(=O)Cn2c(=O)c(CNc3ccccc3)cc3ccc(C)cc32)cc1` [Compound 2CQ], for which the IC50 was > 20 µM.

Take `COc1ccc(NC(=O)Cn2c(=O)c(CNc3ccc(C)cc3)cc3cc4c(cc32)OCCO4)cc1` [Compound 2CR]: the IC50 was > 20 µM.

For `COc1ccc2cc(CNc3ccccc3)c(=O)n(CC(=O)Nc3ccccc3OC)c2c1` [Compound 2CS], the IC50 is > 20 µM.

As to `CCc1ccc(NCc2cc3ccc(OC)cc3n(CC(=O)Nc3ccc(C)c(C)c3)c2=O)cc1` [Compound 2CT], the IC50 is > 20 µM.

For the molecule `CCc1ccc(NC(=O)Cn2c(=O)c(CNc3ccc(C)cc3)cc3ccc(OC)cc32)cc1` [Compound 2CU], the IC50 is > 20 µM.

Consider `CCOc1ccc(NC(=O)Cn2c(=O)c(CNc3ccc(OC)cc3)cc3ccc(OC)cc32)cc1` [Compound 2CV], for which the IC50 was > 20 µM.

`CCc1ccc(NCc2cc3ccc(OC)cc3n(CC(=O)Nc3ccc(CC)cc3)c2=O)cc1` [Compound 2CW]: the IC50 was > 20 µM.

Take `COc1ccc2cc(CNc3ccccc3)c(=O)n(CC(=O)Nc3ccc(C(C)=O)cc3)c2c1` [Compound 2CX]: the IC50 was > 20 µM.

`COc1cc(NC(=O)Cn2c(=O)c(CNc3ccc(C)cc3)cc3ccc(OC)cc32)cc(OC)c1` [Compound 2CY]: the IC50 was > 20 µM.

`COc1cc2cc(CNc3ccccc3)c(=O)n(CC(=O)Nc3ccccc3C)c2cc1OC` [Compound 2CZ]: the IC50 was > 20 µM.

For `CCOC(=O)c1ccccc1NC(=O)Cn1c(=O)c(CNc2ccccc2)cc2ccc(OC)cc21` [Compound 2C], the IC50 is < 1 µM.

On to `Cc1ccc(NCc2cc3cc4c(cc3n(CC(=O)Nc3ccccc3)c2=O)OCCO4)cc1` [Compound 2DA], for which the IC50 is > 20 µM.

With `COc1ccc2cc(CNc3ccccc3)c(=O)n(CC(=O)Nc3ccccc3Cl)c2c1` [Compound 2DB], the IC50 is > 20 µM.

`CC(=O)c1ccc(NC(=O)Cn2c(=O)c(CNc3ccc(C)cc3)cc3cc4c(cc32)OCCO4)cc1` [Compound 2DC]: the IC50 is > 20 µM.

With `COc1ccc2cc(CNc3ccccc3)c(=O)n(CC(=O)Nc3ccccc3F)c2c1` [Compound 2DD], the IC50 was > 20 µM.
